Experimental data as given in patent US20140007502A1, “METHODS AND COMPOSITIONS FOR INCREASED PLANT YIELD” (priority 2011, published 2014).

How the values were obtained:
Format in all cases: in vivo
[1] = system: maize hybrid (Famoso, NK Seeds); test: Maize field plots, kernel yield at conventional and increased plant density (Example 1); conditions: kernels at 14% moisture
Excerpt: Plots measuring 25×40 meters were planted with a common maize hybrid (Famoso, NK Seeds). Eight plots were planted according to density strategies considered optimum prior to the disclosure of the present invention: rows were spaced 75 cm apart, allowing for 16 rows per plot which had 19 cm between plants. Another eight plots were planted with maize at increased density: spacing between rows was 45 cm, giving 24 rows per plot with 22 cm between plants. Thus the density was 7 plants/m^2 for conventional density and 10 plants/m^2 for increased density.
In the 8 plots of conventional density two were untreated controls. Three were treated with a foliar application at stage BBCH 14-15; one with trinexapac ethyl, one with azoxystrobin, and one with a mixture of trinexapac and azoyxstrobin. The remaining three were treated with a foliar application at stage BBCH 31-32; one with trinexapac ethyl, one with azoxystrobin, and one with a mixture of trinexapac and azoyxstrobin. The 8 plots planted at increased density were treated at the same stages and with the same agents as for the conventional density plots. Best practices were used consistently across the test plots with regard to field conditions such as fertilisation and irrigation and all other measures like weed and insect control.
At maturity, each plot was harvested using a standard harvester. After shelling, the kernels were weighed at 14% moisture and the calculations extrapolated to a ton per hectare yield.

[2] = system: maize hybrid COOLER (NK Seeds); test: Maize field trial yield, Valais, Switzerland (Example 2); conditions: treatment at BBCH 14, 188 days
Excerpt: (§1) Plots of suitable size in Valais, Switzerland were planted with maize hybrid COOLER™ (NK Seeds) at a conventional amount of seeds per hectare (in this example, 99,000) and at an increased density amount of seeds per hectare (in this example, 125,000).
(§2) Each density area was divided into four separate treatments—an untreated control, treatment with trinexapac ethyl (0.6 l/Ha of MODDUS™ 250EC which has 250 g trinexapac ethyl per liter) at BBCH 14, treatment with azoyxstrobin (1 l/Ha of a formulated product having 141.4 g azoxystrobin per liter in the form of QUILT® (Syngenta Crop Protection AG) which also contains 122.4 g propiconazole per liter) at BBCH 14, and treatment with trinexapac ethyl (0.6 l/Ha of 250 g/l product) and azoxystrobin (1 l/Ha of 141.4 g/l product) at BBCH 14.
(§3) Best practices were used consistently across the test plots with regard to field conditions such as fertilisation and irrigation and all other measures like weed and insect control. There was no fungal disease pressure. After a growing season of 188 days (29 Apr. 2011 to 3 Nov. 2011), each plot was harvested using a standard harvester. After shelling, the kernels were weighed at 14% moisture and the calculations extrapolated to a ton per hectare yield.

[3] = system: maize variety Famoso (NK Seeds); test: Maize field trial yield, Milano, Italy, 163 days (Example 3); conditions: treatment at BBCH 14
Excerpt: as §1, §2, §3
Plots were prepared and treated according to the procedure described in Example 2. The differences were that the location was Milano, Italy and the variety was Famoso (NK Seeds). The growing season was 163 days (18 Apr. 2011 to 28 Sep. 2011).

[4] = system: maize variety Terada (NK Seeds); test: Maize field trial yield, Oise, France (Example 4); conditions: treatment at BBCH 14, 182 days
Excerpt: as §1, §2, §3
Plots were prepared and treated according to the procedure described in Example 2. The differences were that the location was Oise, France and the variety was Terada (NK Seeds). The growing season was 182 days (14 Apr. 2011 to 13 Oct. 2011).

[5] = system: maize variety Famoso (NK Seeds); test: Maize field trial yield, Milano, Italy, 158 days (Example 5); conditions: treatment at BBCH 14
Excerpt: as §1, §2, §3
Plots were prepared and treated according to the procedure described in Example 2. The differences were that the location was Milano, Italy and the variety was Famoso (NK Seeds). The growing season was 158 days (15 Apr. 2011 to 20 Sep. 2011).

[6] = system: maize variety DeliTop (NK Seeds); test: Maize field trial yield, Niedersachsen, Germany (Example 6); conditions: treatment at BBCH 14, 184 days
Excerpt: as §1, §2, §3
Plots were prepared and treated according to the procedure described in Example 2. The differences were that the location was Niedersachsen, Germany and the variety was DeliTop (NK Seeds). The growing season was 184 days (1 May 2011 to 1 Nov. 2011).

[7] = plant density 7 plants/m^2, foliar application at BBCH 14-15
[8] = plant density 7 plants/m^2, foliar application at BBCH 31-32
[9] = plant density 10 plants/m^2, foliar application at BBCH 14-15
[10] = plant density 10 plants/m^2, foliar application at BBCH 31-32

SMILES | Yield [1, 7] | Yield [1, 8] | Yield [1, 9] | Yield [1, 10] | Yield ([2]; 99,000 seeds per hectare) | Yield ([2]; 125,000 seeds per hectare) | Yield ([3]; 73,000 seeds per hectare) | Yield ([3]; 94,000 seeds per hectare) | Yield ([4]; 70,000 seeds per hectare) | Yield ([4]; 100,000 seeds per hectare) | Yield ([5]; 74,000 seeds per hectare) | Yield ([5]; 94,000 seeds per hectare) | Yield ([6]; 72,000 seeds per hectare) | Yield ([6]; 111,000 seeds per hectare)
CO/C=C(/C(=O)OC)c1ccccc1Oc1cc(Oc2ccccc2C#N)ncn1 [Azoxystrobin, azoxystrobin] | 16.67 tons/ha | 17.28 tons/ha | 20.11 tons/ha | 19.58 tons/ha | 14.1 tons/ha | 17.8 tons/ha | 11.6 tons/ha | 12.2 tons/ha | 11.2 tons/ha | 13.6 tons/ha | 14.0 tons/ha | 15.0 tons/ha | 11.4 tons/ha | 11.1 tons/ha
CCOC(=O)C1CC(=O)C(=C(O)C2CC2)C(=O)C1 (stereo not shown) [Trinexapac Ethyl, trinexapac ethyl] | 16.82 tons/ha | 16.70 tons/ha | 19.85 tons/ha | 19.41 tons/ha | 14.0 tons/ha | 18.6 tons/ha | 11.3 tons/ha | 12.1 tons/ha | 10.5 tons/ha | 14.6 tons/ha | 13.7 tons/ha | 14.7 tons/ha | 11.4 tons/ha | 11.0 tons/ha
